≈ marks a conversion by molar mass, not a printed value.
Experiments:
Assay type in all cases: functional
[1] = system: Aspergillus clavatus; assay: Antifungal activity against Aspergillus clavatus MTCC 1323 after 72 hr; conditions: MTCC 1323, 72 h
[2] = system: Aspergillus niger; assay: Antifungal activity against Aspergillus niger MTCC 282 after 72 hr; conditions: MTCC 282, 72 h
[3] = system: Candida albicans; assay: Antifungal activity against Candida albicans MTCC 227 after 72 hr; conditions: MTCC 227, 72 h
[4] = system: Streptococcus pyogenes; assay: Antibacterial activity against Streptococcus pyogenes MTCC 442 after 24 to 48 hr by serial broth dilution method
[5] = system: Staphylococcus aureus; assay: Antibacterial activity against Staphylococcus aureus MTCC 96 after 24 to 48 hr by serial broth dilution method
[6] = system: Pseudomonas aeruginosa; assay: Antibacterial activity against Pseudomonas aeruginosa MTCC 1688 after 24 to 48 hr by serial broth dilution method
[7] = system: Escherichia coli; assay: Antibacterial activity against Escherichia coli MTCC 443 after 24 to 48 hr by serial broth dilution method

MIC99 [1] [µg/mL] | MIC99 [2] [µg/mL] | MIC99 [3] [µg/mL] | MIC99 [4] [µg/mL] | MIC99 [5] [µg/mL] | MIC99 [6] [µg/mL] | MIC99 [7] [µg/mL] | SMILES
500 (≈ 1330 µM) | 200 (≈ 531 µM) | 200 (≈ 531 µM) | 500 (≈ 1330 µM) | 250 (≈ 664 µM) | 250 (≈ 664 µM) | 100 (≈ 266 µM) | COc1ccccc1C(=O)Nn1c(S)nnc1-c1cccc2ccccc12
200 (≈ 552 µM) | 500 (≈ 1380 µM) | 500 (≈ 1380 µM) | 500 (≈ 1380 µM) | 500 (≈ 1380 µM) | 1000 (≈ 2760 µM) | 1000 (≈ 2760 µM) | O=C(Nn1c(S)nnc1-c1cccc2ccccc12)c1ccccc1O
100 (≈ 277 µM) | 500 (≈ 1390 µM) | 200 (≈ 555 µM) | 100 (≈ 277 µM) | 500 (≈ 1390 µM) | 100 (≈ 277 µM) | 100 (≈ 277 µM) | Cc1ccccc1C(=O)Nn1c(S)nnc1-c1cccc2ccccc12
250 (≈ 656 µM) | 100 (≈ 263 µM) | 50 (≈ 131 µM) | 500 (≈ 1310 µM) | 500 (≈ 1310 µM) | 100 (≈ 263 µM) | 50 (≈ 131 µM) | O=C(Nn1c(S)nnc1-c1cccc2ccccc12)c1ccccc1Cl

Continued, molecule first:

SMILES | MIC99 [1] [µg/mL] | MIC99 [2] [µg/mL] | MIC99 [3] [µg/mL] | MIC99 [4] [µg/mL] | MIC99 [5] [µg/mL] | MIC99 [6] [µg/mL] | MIC99 [7] [µg/mL]
COC1=CC(=O)C[C@@H](C)[C@]12Oc1c(Cl)c(OC)cc(OC)c1C2=O [GRISEOFULVIN] | 100 (≈ 283 µM) | 100 (≈ 283 µM) | 500 (≈ 1420 µM) | – | – | – | –
CC1(C)S[C@@H]2[C@H](NC(=O)[C@H](N)c3ccccc3)C(=O)N2[C@H]1C(=O)O [AMPICILLIN] | – | – | – | 100 (≈ 286 µM) | 250 (≈ 715 µM) | 100 (≈ 286 µM) | 100 (≈ 286 µM)
O=C(Nn1c(S)nnc1-c1cccc2ccccc12)c1ccc(O)cc1 | 500 (≈ 1380 µM) | 500 (≈ 1380 µM) | 500 (≈ 1380 µM) | 500 (≈ 1380 µM) | 100 (≈ 276 µM) | 100 (≈ 276 µM) | 250 (≈ 690 µM)
O=C(Nn1c(S)nnc1-c1cccc2ccccc12)c1ccccc1 | 1000 (≈ 2890 µM) | 1000 (≈ 2890 µM) | 1000 (≈ 2890 µM) | 1000 (≈ 2890 µM) | 500 (≈ 1440 µM) | 50 (≈ 144 µM) | 500 (≈ 1440 µM)
O=C(Cc1ccccc1)Nn1c(S)nnc1-c1cccc2ccccc12 | 500 (≈ 1390 µM) | 500 (≈ 1390 µM) | 1000 (≈ 2770 µM) | 200 (≈ 555 µM) | 250 (≈ 694 µM) | 500 (≈ 1390 µM) | 500 (≈ 1390 µM)
O=C(COc1ccc2ccccc2c1)Nn1c(S)nnc1-c1cccc2ccccc12 | 500 (≈ 1170 µM) | 500 (≈ 1170 µM) | 500 (≈ 1170 µM) | 500 (≈ 1170 µM) | 250 (≈ 586 µM) | 250 (≈ 586 µM) | 100 (≈ 234 µM)
O=C(Nn1c(S)nnc1-c1cccc2ccccc12)c1ccc([N+](=O)[O-])cc1 | 50 (≈ 128 µM) | 50 (≈ 128 µM) | 50 (≈ 128 µM) | 500 (≈ 1280 µM) | 250 (≈ 639 µM) | 25 (≈ 63.9 µM) | 50 (≈ 128 µM)
O=C(Nn1c(S)nnc1-c1cccc2ccccc12)c1ccc2cccc([N+](=O)[O-])c2c1 | 50 (≈ 113 µM) | 100 (≈ 227 µM) | 100 (≈ 227 µM) | 250 (≈ 566 µM) | 250 (≈ 566 µM) | 100 (≈ 227 µM) | 200 (≈ 453 µM)
O=C(Nn1c(S)nnc1-c1cccc2ccccc12)c1cccc(Cl)c1 | 50 (≈ 131 µM) | 50 (≈ 131 µM) | 50 (≈ 131 µM) | 100 (≈ 263 µM) | 250 (≈ 656 µM) | 250 (≈ 656 µM) | 25 (≈ 65.6 µM)
O=C(Nn1c(S)nnc1-c1cccc2ccccc12)c1cccc([N+](=O)[O-])c1 | 100 (≈ 255 µM) | 200 (≈ 511 µM) | 200 (≈ 511 µM) | 500 (≈ 1280 µM) | 100 (≈ 255 µM) | 100 (≈ 255 µM) | 100 (≈ 255 µM)

— ChEMBL document CHEMBL3045867, “Synthesis, characterization, and antimicrobial evaluation of novel naphthalene-based 1,2,4-triazoles” (2012)
